# Test results as given in PubChem BioAssay (NCI).
#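 A five-concentration, 48-hour dose response in 96-well plates underlies each endpoint, interpolated linearly between surrounding concentrations. GI50 is the concentration that inhibits growth by half. TGI marks complete inhibition of growth.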
# How the values were obtained:
# Test in all cases: NCI-60 cell line screen, 48 h
# [1] = test system: 786-0 renal
# [2] = test system: A498 renal
# [3] = test system: A549 NSCLC
# [4] = test system: ACHN renal
# [5] = test system: BT-549 breast
# [6] = test system: CAKI-1 renal
# [7] = test system: CCRF-CEM leukemia
# [8] = test system: COLO 205 colon
# [9] = test system: DU-145 prostate
# [10] = test system: EKVX NSCLC
# [11] = test system: HCC-2998 colon
# [12] = test system: HCT-116 colon
# [13] = test system: HCT-15 colon
# [14] = test system: HL-60(TB) leukemia
# [15] = test system: HOP-62 NSCLC
# [16] = test system: HOP-92 NSCLC
# [17] = test system: HS 578T breast
# [18] = test system: HT29 colon
# [19] = test system: IGROV1 ovarian
# [20] = test system: K-562 leukemia
# [21] = test system: KM12 colon
# [22] = test system: LOX IMVI melanoma
# [23] = test system: M14 melanoma
# [24] = test system: MALME-3M melanoma
# [25] = test system: MCF7 breast
# [26] = test system: MDA-MB-231 breast
# [27] = test system: MDA-MB-435
# [28] = test system: MOLT-4 leukemia
# [29] = test system: NCI-H226 lung
# [30] = test system: NCI-H23 lung
# [31] = test system: NCI-H460 lung
# [32] = test system: NCI-H522 lung
# [33] = test system: NCI/ADR-RES ovarian
# [34] = test system: OVCAR-3 ovarian
# [35] = test system: OVCAR-4 ovarian
# [36] = test system: OVCAR-5 ovarian
# [37] = test system: OVCAR-8 ovarian
# [38] = test system: PC-3 prostate
# [39] = test system: RPMI-8226 leukemia
# [40] = test system: RXF 393 renal
# [41] = test system: SF-268 CNS
# [42] = test system: SF-295 CNS
# [43] = test system: SF-539 CNS
# [44] = test system: SK-MEL-2 melanoma
# [45] = test system: SK-MEL-28 melanoma
# [46] = test system: SK-MEL-5 melanoma
# [47] = test system: SK-OV-3 ovarian
# [48] = test system: SN12C renal
# [49] = test system: SNB-19 CNS
# [50] = test system: SNB-75 CNS
# [51] = test system: SR leukemia
# [52] = test system: SW-620 colon
# [53] = test system: T-47D breast
# [54] = test system: TK-10 renal
# [55] = test system: U251 CNS
# [56] = test system: UACC-257 melanoma
# [57] = test system: UACC-62 melanoma
# [58] = test system: UO-31 renal
structure (smiles),measurement,setting,value
Cc1oc2c(C(=O)N/N=C\c3ccc(O)cc3O)c[nH]c2c1C,GI50,[1],464 nM
same,TGI,[1],7490 nM
same,GI50,[2],6620 nM
same,TGI,[2],39300 nM
same,GI50,[3],518 nM
same,TGI,[3],13200 nM
same,GI50,[4],339 nM
same,TGI,[4],13700 nM
same,GI50,[5],2050 nM
same,TGI,[5],> 54600 nM
same,GI50,[6],739 nM
same,TGI,[6],26700 nM
same,GI50,[7],190 nM
same,TGI,[7],> 100000 nM
same,GI50,[8],290 nM
same,GI50,[9],1320 nM
same,TGI,[9],> 41100 nM
same,GI50,[10],460 nM
same,TGI,[10],> 54200 nM
same,GI50,[11],876 nM
same,TGI,[11],> 50600 nM
same,GI50,[12],424 nM
same,TGI,[12],32500 nM
same,GI50,[13],175 nM
same,TGI,[13],> 100000 nM
same,GI50,[14],337 nM
same,GI50,[15],754 nM
same,TGI,[15],26300 nM
same,GI50,[16],541 nM
same,TGI,[16],9210 nM
same,GI50,[17],6710 nM
same,TGI,[17],> 60700 nM
same,GI50,[18],2850 nM
same,TGI,[18],> 48200 nM
same,GI50,[19],593 nM
same,TGI,[19],44500 nM
same,GI50,[20],1140 nM
same,TGI,[20],> 100000 nM
same,GI50,[21],1100 nM
same,TGI,[21],> 73400 nM
same,GI50,[22],409 nM
same,TGI,[22],10600 nM
same,GI50,[23],756 nM
same,TGI,[23],17300 nM
same,GI50,[24],2230 nM
same,TGI,[24],25300 nM
same,GI50,[25],521 nM
same,TGI,[25],> 33600 nM
same,GI50,[26],8130 nM
same,TGI,[26],> 45900 nM
same,GI50,[27],4520 nM
same,TGI,[27],> 100000 nM
same,GI50,[28],440 nM
same,TGI,[28],> 100000 nM
same,GI50,[29],4140 nM
same,TGI,[29],24300 nM
same,GI50,[30],1490 nM
same,TGI,[30],24300 nM
same,GI50,[31],347 nM
same,TGI,[31],7280 nM
same,GI50,[32],704 nM
same,TGI,[32],63900 nM
same,GI50,[33],295 nM
same,TGI,[33],23300 nM
same,GI50,[34],368 nM
same,TGI,[34],> 39400 nM
same,GI50,[35],414 nM
same,TGI,[35],> 47100 nM
same,GI50,[36],3890 nM
same,TGI,[36],> 45200 nM
same,GI50,[37],664 nM
same,TGI,[37],39700 nM
same,GI50,[38],579 nM
same,TGI,[38],> 45600 nM
same,GI50,[39],445 nM
same,TGI,[39],17400 nM
same,GI50,[40],580 nM
same,TGI,[40],16700 nM
same,GI50,[41],662 nM
same,TGI,[41],> 44400 nM
same,GI50,[42],435 nM
same,TGI,[42],29600 nM
same,GI50,[43],840 nM
same,TGI,[43],12500 nM
same,GI50,[44],10400 nM
same,TGI,[44],> 100000 nM
same,GI50,[45],2120 nM
same,TGI,[45],> 41700 nM
same,GI50,[46],1020 nM
same,TGI,[46],15700 nM
same,GI50,[47],680 nM
same,TGI,[47],17400 nM
same,GI50,[48],2540 nM
same,TGI,[48],> 48400 nM
same,GI50,[49],1320 nM
same,TGI,[49],> 42000 nM
same,GI50,[50],3570 nM
same,TGI,[50],> 39600 nM
same,GI50,[51],4470 nM
same,TGI,[51],> 100000 nM
same,GI50,[52],801 nM
same,TGI,[52],> 37000 nM
same,GI50,[53],1790 nM
same,TGI,[53],> 43200 nM
same,GI50,[54],1030 nM
same,TGI,[54],> 64800 nM
same,GI50,[55],570 nM
same,TGI,[55],15400 nM
same,GI50,[56],644 nM
same,TGI,[56],3080 nM
same,GI50,[57],665 nM
same,TGI,[57],8320 nM
same,GI50,[58],208 nM
same,TGI,[58],13900 nM
O=C1/C=C/[C@@H](O)[C@@H]2C[C@@H](O)C[C@H]2/C=C/CCC[C@H](CCc2ccccc2)O1,GI50,[1],12.5 nM
same,TGI,[1],45.3 nM
same,GI50,[2],< 11.8 nM
same,TGI,[2],40.9 nM
same,GI50,[3],40.8 nM
same,TGI,[3],> 100000 nM
same,GI50,[4],37.1 nM
same,TGI,[4],> 100000 nM
same,GI50,[5],48.5 nM
same,TGI,[5],14300 nM
same,GI50,[6],36.1 nM
same,TGI,[6],3650 nM
same,GI50,[7],39.1 nM
same,TGI,[7],> 59400 nM
same,GI50,[8],19.7 nM
same,TGI,[8],36.9 nM
same,GI50,[9],49.9 nM
same,TGI,[9],> 100000 nM
same,GI50,[10],36.9 nM
same,TGI,[10],14600 nM
same,GI50,[11],29.6 nM
same,TGI,[11],994 nM
same,GI50,[12],23.1 nM
same,TGI,[12],54.9 nM
same,GI50,[13],34.3 nM
same,TGI,[13],13000 nM
same,GI50,[14],30.7 nM
same,TGI,[14],128 nM
same,GI50,[15],37.1 nM
same,TGI,[15],20500 nM
same,GI50,[16],31 nM
same,TGI,[16],396 nM
same,GI50,[17],< 10 nM
same,TGI,[17],21700 nM
same,GI50,[18],31.5 nM
same,TGI,[18],470 nM
same,GI50,[19],40.2 nM
same,TGI,[19],13200 nM
same,GI50,[20],38.4 nM
same,TGI,[20],22700 nM
same,GI50,[21],< 10 nM
same,TGI,[21],26.3 nM
same,GI50,[22],21.1 nM
same,TGI,[22],48 nM
same,GI50,[23],26.4 nM
same,TGI,[23],10700 nM
same,GI50,[24],23.1 nM
same,TGI,[24],85.4 nM
same,GI50,[25],23.4 nM
same,TGI,[25],55.1 nM
same,GI50,[26],20.4 nM
same,TGI,[26],42.7 nM
same,GI50,[27],36.5 nM
same,TGI,[27],14000 nM
same,GI50,[28],36 nM
same,GI50,[29],17.9 nM
same,TGI,[29],74.8 nM
same,GI50,[30],33.4 nM
same,TGI,[30],285 nM
same,GI50,[31],38.9 nM
same,TGI,[31],15700 nM
same,GI50,[32],41.2 nM
same,TGI,[32],200 nM
same,GI50,[33],28.9 nM
same,TGI,[33],823 nM
same,GI50,[34],25.4 nM
same,TGI,[34],61.1 nM
same,GI50,[35],37.3 nM
same,TGI,[35],9480 nM
same,GI50,[36],57.3 nM
same,TGI,[36],> 100000 nM
same,GI50,[37],29.4 nM
same,TGI,[37],12700 nM
same,GI50,[38],44.4 nM
same,TGI,[38],24800 nM
same,GI50,[39],41.4 nM
same,TGI,[39],5310 nM
same,GI50,[40],< 10 nM
same,TGI,[40],< 21.2 nM
same,GI50,[41],22.9 nM
same,TGI,[41],7380 nM
same,GI50,[42],38 nM
same,TGI,[42],> 50000 nM
same,GI50,[43],53.2 nM
same,TGI,[43],> 66500 nM
same,GI50,[44],31.8 nM
same,TGI,[44],100 nM
same,GI50,[45],< 10 nM
same,TGI,[45],45.6 nM
same,GI50,[46],< 10 nM
same,TGI,[46],16.8 nM
same,GI50,[47],34.3 nM
same,TGI,[47],27000 nM
same,GI50,[48],37.3 nM
same,TGI,[48],14100 nM
same,GI50,[49],51.4 nM
same,TGI,[49],> 88100 nM
same,GI50,[50],< 12.4 nM
same,TGI,[50],33800 nM
same,GI50,[51],35 nM
same,GI50,[52],28.7 nM
same,TGI,[52],84.7 nM
same,GI50,[53],48.3 nM
same,TGI,[53],30700 nM
same,GI50,[54],34.8 nM
same,TGI,[54],206 nM
same,GI50,[55],40.6 nM
same,TGI,[55],30100 nM
same,GI50,[56],37.5 nM
same,TGI,[56],21700 nM
same,GI50,[57],46.7 nM
same,TGI,[57],9000 nM
same,GI50,[58],31.7 nM
same,TGI,[58],13400 nM
